Measurements taken from US9427440B2, “Macrocyclic indole derivatives useful as hepatitis C virus inhibitors” (Janssen Sciences Ireland UC, priority 2008, dated 2016).

Columns and labels:
NS5B 4a isolate 1 [1] = target: T1, NS5B 4a isolate 1 (Hepatitis C virus genotype 4a, UniProt O39929)
NS5B 4a isolate 1 [2] = target: T1, NS5B 4a isolate 1; experiment: biochemical
NS5B 1a isolate 3 = NS5B 1a isolate 3 (Hepatitis C virus genotype 1a, UniProt P27958)
NS5B 6a isolate 5 [3] = target: T2, NS5B 6a isolate 5 (Hepatitis C virus genotype 6a, UniProt O39927)
NS5B 1a isolate 2 = NS5B 1a isolate 2 (Hepatitis C virus genotype 1a, UniProt P27958)
NS5B 1b isolate 3 = NS5B 1b isolate 3 (Hepatitis C virus genotype 1b, UniProt Q9WMX2)
NS5B 6a isolate 5 [4] = target: T2, NS5B 6a isolate 5; experiment: biochemical
NS5B 4a isolate 3 [5] = target: T3, NS5B 4a isolate 3 (Hepatitis C virus genotype 4a, UniProt O39929)
NS5B 1a isolate 4 = NS5B 1a isolate 4 (Hepatitis C virus genotype 1a, UniProt P27958)
NS5B 4a isolate 3 [6] = target: T3, NS5B 4a isolate 3; experiment: biochemical
NS5B 4a isolate 2 [7] = target: T4, NS5B 4a isolate 2 (Hepatitis C virus genotype 4a, UniProt O39929); experiment: biochemical
NS5B 4a isolate 2 [8] = target: T4, NS5B 4a isolate 2
NS5B 1a isolate 1 = NS5B 1a isolate 1 (Hepatitis C virus genotype 1a, UniProt P27958)
NS5B 1b isolate 2 = NS5B 1b isolate 2 (Hepatitis C virus genotype 1b, UniProt Q9WMX2)
NS5B 2b isolate 2 = NS5B 2b isolate 2 (Hepatitis C virus genotype 2b, UniProt P26661)
NS5B 5a isolate 4 = NS5B 5a isolate 4 (Hepatitis C virus genotype 5a, UniProt O39928); experiment: Enzyme binding affinity, SPR (Biacore); parameters: species or system HCV
[9] = test system: HCV type 1b replicon in Huh-7 luc/neo (Huh-Luc) cells; experiment: HCV replicon assay (Huh-Luc, luciferase); settings: Hepatitis C virus, Huh-7, 72 h
HCV NS5B 1bJ4 = HCV NS5B 1bJ4 (Hepatitis C virus genotype 1b (strain HC-J4) (HCV), UniProt O92972); experiment: Inhibition assay with NS5b 1bJ4 (RdRp, SPA); assay type: biochemical; settings: 50 nM NS5B 1bJ4 enzyme, radiolabeled GTP incorporation
HCV NS5B con1b = HCV NS5B con1b (Hepatitis C virus genotype 1b (isolate Con1) (HCV), UniProt Q9WMX2); experiment: RNA-dependent RNA polymerase assay NS5B con1b; settings: read-out: IC50 Con1b; 20 nM Con1b NS5B enzyme, primer-dependent transcription assay
Procedure: Fifty-percent inhibitory concentrations (Table 1: IC50 con1b) were determined according to the method as described previously (Pauwels et al, 2007, J Virol 81:6909-19) using a primer-dependent transcription assay. […] 600 nM GTP and 0.13 μCi of [^3H]GTP was then added to initiate the 40-μl reaction mixture, which was then incubated at room temperature for 2 h before the reaction was stopped by addition of 40-μl streptavidin-coated SPA beads.

HCV NS5B 1bJ4, sequence (O92972 whole entry, looked up): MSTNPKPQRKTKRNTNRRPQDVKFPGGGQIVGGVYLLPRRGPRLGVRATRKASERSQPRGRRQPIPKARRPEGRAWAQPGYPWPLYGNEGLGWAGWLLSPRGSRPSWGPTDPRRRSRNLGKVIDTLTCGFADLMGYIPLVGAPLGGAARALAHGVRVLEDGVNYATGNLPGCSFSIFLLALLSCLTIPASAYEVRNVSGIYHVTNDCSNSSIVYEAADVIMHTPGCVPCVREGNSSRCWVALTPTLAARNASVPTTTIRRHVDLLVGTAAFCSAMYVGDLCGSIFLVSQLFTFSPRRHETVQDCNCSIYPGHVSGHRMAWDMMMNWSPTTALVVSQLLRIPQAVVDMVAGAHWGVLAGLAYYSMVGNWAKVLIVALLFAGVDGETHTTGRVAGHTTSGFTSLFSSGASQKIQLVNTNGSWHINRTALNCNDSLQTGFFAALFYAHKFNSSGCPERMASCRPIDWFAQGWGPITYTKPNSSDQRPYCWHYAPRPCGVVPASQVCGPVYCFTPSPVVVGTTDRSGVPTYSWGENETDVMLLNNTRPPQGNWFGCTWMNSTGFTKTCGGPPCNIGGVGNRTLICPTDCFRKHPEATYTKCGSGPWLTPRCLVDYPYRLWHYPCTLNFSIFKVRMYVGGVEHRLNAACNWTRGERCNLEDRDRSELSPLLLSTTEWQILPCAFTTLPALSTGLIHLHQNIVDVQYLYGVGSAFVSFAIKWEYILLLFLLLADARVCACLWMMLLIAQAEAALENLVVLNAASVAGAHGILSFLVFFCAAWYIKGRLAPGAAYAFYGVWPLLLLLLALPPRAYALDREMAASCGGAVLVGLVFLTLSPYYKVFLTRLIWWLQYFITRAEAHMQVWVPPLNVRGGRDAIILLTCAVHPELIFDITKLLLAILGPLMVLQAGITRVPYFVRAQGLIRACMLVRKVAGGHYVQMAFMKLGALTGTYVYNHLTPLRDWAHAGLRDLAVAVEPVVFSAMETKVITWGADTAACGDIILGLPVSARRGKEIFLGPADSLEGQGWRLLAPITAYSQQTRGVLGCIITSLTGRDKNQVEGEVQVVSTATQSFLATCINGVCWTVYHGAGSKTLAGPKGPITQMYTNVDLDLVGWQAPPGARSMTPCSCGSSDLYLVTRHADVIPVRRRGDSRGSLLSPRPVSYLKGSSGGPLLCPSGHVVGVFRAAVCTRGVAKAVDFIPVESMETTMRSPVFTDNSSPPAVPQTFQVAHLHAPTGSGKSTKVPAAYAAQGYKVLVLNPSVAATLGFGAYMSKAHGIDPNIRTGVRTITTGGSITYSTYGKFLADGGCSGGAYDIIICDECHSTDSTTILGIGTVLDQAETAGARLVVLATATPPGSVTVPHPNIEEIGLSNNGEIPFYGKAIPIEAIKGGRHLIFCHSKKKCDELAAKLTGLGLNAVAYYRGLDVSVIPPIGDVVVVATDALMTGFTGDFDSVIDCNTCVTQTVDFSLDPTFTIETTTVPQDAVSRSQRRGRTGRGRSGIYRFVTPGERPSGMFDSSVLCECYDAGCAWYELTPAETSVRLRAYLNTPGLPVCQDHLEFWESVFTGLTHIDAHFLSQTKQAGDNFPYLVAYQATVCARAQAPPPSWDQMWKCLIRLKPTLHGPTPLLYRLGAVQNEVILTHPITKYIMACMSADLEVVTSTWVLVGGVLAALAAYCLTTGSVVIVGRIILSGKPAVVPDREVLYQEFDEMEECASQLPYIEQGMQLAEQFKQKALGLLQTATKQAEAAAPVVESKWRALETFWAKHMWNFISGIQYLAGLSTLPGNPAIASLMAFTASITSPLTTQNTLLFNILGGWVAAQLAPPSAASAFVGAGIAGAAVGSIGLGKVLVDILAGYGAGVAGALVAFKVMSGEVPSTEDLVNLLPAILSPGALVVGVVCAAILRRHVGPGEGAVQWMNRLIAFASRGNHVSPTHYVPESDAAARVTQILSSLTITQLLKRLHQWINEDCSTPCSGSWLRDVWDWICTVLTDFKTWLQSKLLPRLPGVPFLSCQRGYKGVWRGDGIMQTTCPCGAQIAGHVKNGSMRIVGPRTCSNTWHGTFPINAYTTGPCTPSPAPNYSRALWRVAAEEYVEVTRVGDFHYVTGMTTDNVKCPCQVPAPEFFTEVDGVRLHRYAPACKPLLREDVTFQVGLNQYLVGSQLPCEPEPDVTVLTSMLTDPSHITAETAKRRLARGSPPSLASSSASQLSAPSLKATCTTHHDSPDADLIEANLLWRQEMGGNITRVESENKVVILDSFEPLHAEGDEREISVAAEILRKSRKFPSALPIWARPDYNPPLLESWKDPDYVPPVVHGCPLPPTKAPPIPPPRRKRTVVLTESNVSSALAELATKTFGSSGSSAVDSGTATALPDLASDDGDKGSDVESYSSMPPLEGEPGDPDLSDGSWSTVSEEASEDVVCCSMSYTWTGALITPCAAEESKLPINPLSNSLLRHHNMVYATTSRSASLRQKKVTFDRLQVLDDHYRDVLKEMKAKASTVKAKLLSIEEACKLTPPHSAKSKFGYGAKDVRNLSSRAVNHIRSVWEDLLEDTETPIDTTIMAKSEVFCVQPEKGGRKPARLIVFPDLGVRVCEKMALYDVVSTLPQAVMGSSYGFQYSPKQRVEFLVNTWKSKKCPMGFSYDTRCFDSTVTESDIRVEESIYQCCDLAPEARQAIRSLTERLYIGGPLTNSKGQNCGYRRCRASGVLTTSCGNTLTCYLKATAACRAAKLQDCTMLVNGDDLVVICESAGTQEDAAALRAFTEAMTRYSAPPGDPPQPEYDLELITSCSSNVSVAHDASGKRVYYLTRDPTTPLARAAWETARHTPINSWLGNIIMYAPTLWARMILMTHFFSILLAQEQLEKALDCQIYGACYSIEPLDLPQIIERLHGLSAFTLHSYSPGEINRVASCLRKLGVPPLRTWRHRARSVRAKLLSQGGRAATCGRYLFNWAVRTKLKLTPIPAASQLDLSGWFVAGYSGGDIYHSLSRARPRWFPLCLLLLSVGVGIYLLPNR

Row | Structure (SMILES) | EC50 [9] [nM] | also measured
1 | COc1ccc2c(c1)C=C1Cn3c-2c(C2CCCCC2)c2ccc(cc23)C(=O)NS(=O)(=O)N(C)CCOCCN(C)C1=O [Compound 1] |  | t1/2 (NS5B 4a isolate 1 [1]): 26.7 min; Kd (NS5B 4a isolate 1 [2]): 2.1 nM; t1/2 (NS5B 1a isolate 3): 19.2 min; t1/2 (NS5B 6a isolate 5 [3]): 7.3 min; t1/2 (NS5B 1a isolate 2): 31.3 min; t1/2 (NS5B 1b isolate 3): 96.4 min; Kd (NS5B 6a isolate 5 [4]): 32 nM; t1/2 (NS5B 4a isolate 3 [5]): 19.1 min; t1/2 (NS5B 1a isolate 4): 14.9 min; Kd (NS5B 4a isolate 3 [6]): 3.4 nM; Kd (NS5B 4a isolate 2 [7]): 1.4 nM; t1/2 (NS5B 4a isolate 2 [8]): 30.1 min; t1/2 (NS5B 1a isolate 1): 24.2 min; t1/2 (NS5B 1b isolate 2): 172.1 min; t1/2 (NS5B 2b isolate 2): 1.0 min; Kd (NS5B 5a isolate 4): 22 nM
2 | COc1ccc2c(c1)C=C1Cn3c-2c(C2CCCCC2)c2ccc(cc23)C(=O)NS(=O)(=O)N2CCN(CCNC1=O)CC2 [Compound 5] | 920 | IC50 (HCV NS5B 1bJ4): 290 nM
3 | COc1ccc2c(c1)C=C1Cn3c-2c(C2CCCCC2)c2ccc(cc23)C(=O)NS(=O)(=O)N(C)CCN(C)CCNC1=O [Compound 6] | 550 | 
4 | COc1ccc2c(c1)[C@@H]1C[C@]13Cn1c-2c(C2CCCCC2)c2ccc(cc21)C(=O)NS(=O)(=O)N(C)CCOCCN(C)C3=O [Compound 8, (1aR,12bS)-8-cyclohexyl-11-methoxy-16,22-dimethyl-1,12b-dihydro-5,1a-(methanoiminothioiminoethanooxyethanoiminomethano)cyclopropa[d]-indolo[2,1-a][2]benzazepine-13,23(2H)-dione 15,15-dioxide] | 40 | 
5 | COc1ccc2c(c1)[C@H]1C[C@@]13Cn1c-2c(C2CCCCC2)c2ccc(cc21)C(=O)NS(=O)(=O)N(C)CCOCCN(C)C3=O [Compound 9, (1 aS,12bR)-8-cyclohexyl-11-methoxy-16,22-dimethyl-1,12b-dihydro-5,1a-(methanoiminothioiminoethanooxyethanoiminomethano)cyclopropa[d]indolo-[2,1-a][2]benzazepine-13,23(2H)-dione 15,15-dioxide] | 800 | 
6 | COc1ccc2c(c1)C1CC13Cn1c-2c(C2CCCCC2)c2ccc(cc21)C(=O)NS(=O)(=O)N(C)CCCCNC3=O (stereo not shown) [Compound 10, 8-cyclohexyl-11-methoxy-16-methyl-1,12b-dihydro-5,1a-(methanoiminothioiminobutanoimino)cyclopropa[d]indolo[2,1-a][2]benzazepine-13,22(2H)-dione 15,15-dioxide] | 60 | IC50 (HCV NS5B 1bJ4): 280 nM
7 | COc1ccc2c(c1)C1CC13Cn1c-2c(C2CCCCC2)c2ccc(cc21)C(=O)NS(=O)(=O)N(C)CCN1CCN(CC1)C3=O (stereo not shown) [Compound 11, 31-cyclohexyl-8-methoxy-22-methyl-21-thia-1,13,20,22,25-pentaazaheptacyclo-[23.2.2.1^3,13.1^12,15.1^14,18.0^3,5.0^6,11]dotriaconta-6,8,10,12(31),14(30),15,17-heptaene-2,19-dione 21,21-dioxide] | 55 | IC50 (HCV NS5B 1bJ4): 220 nM
8 | COc1ccc2c(c1)C1CC13Cn1c-2c(C2CCCCC2)c2ccc(cc21)C(=O)NS(=O)(=O)N(C)C/C=C/CCNC3=O (stereo not shown) [Compound 12, 8-cyclohexyl-11-methoxy-16-methyl-1,12b-dihydro-5,1a-(methaniminothio-iminopent[2]enoiminomethano)cyclopropa[d]indolo[2,1-a][2]benzazepine-13,23(2H)-dione 15,15-dioxide] | 290 | IC50 (HCV NS5B 1bJ4): 930 nM
9 | COc1ccc2c(c1)C=C1Cn3c-2c(C2CCCCC2)c2ccc(cc23)C(=O)NS(=O)(=O)N(C)CC=CCNC1=O [Compound 13] | 390 | IC50 (HCV NS5B 1bJ4): 190 nM
10 | COc1ccc2c(c1)C=C1Cn3c-2c(C2CCCCC2)c2ccc(cc23)C(=O)NS(=O)(=O)N(C)CCN2CCN(CC2)C1=O [Compound 15] | 180 | 
11 | COc1ccc2c(c1)C(C)=C1Cn3c-2c(C2CCCCC2)c2ccc(cc23)C(=O)NS(=O)(=O)N(C)CCOCCN(C)C1=O [Compound 16] | 78 | 
12 | COc1ccc2c(c1)C(C)=C1Cn3c-2c(C2CCCCC2)c2ccc(cc23)C(=O)NS(=O)(=O)N(C)CCCCN(C)C1=O [Compound 17] | 170 | 
13 | COc1ccc2c(c1)C=C1Cn3c-2c(C2CCCCC2)c2ccc(cc23)C(=O)NS(=O)(=O)N(C)CCCCN(C)C1=O [Compound 18] | 79 | 
14 | CN1CCOCCN(C)S(=O)(=O)NC(=O)c2ccc3c(C4CCCCC4)c4n(c3c2)CC(=Cc2cc(F)ccc2-4)C1=O [Compound 19] | 72 | IC50 (HCV NS5B con1b): 31 nM
15 | CC1=C2Cn3c(c(C4CCCCC4)c4ccc(cc43)C(=O)NS(=O)(=O)N(C)CCOCCN(C)C2=O)-c2ccc(F)cc21 [Compound 20] | 81 | IC50 (HCV NS5B con1b): 38 nM
16 | CN1CCOCCN(C)S(=O)(=O)NC(=O)c2ccc3c(C4CCCCC4)c4n(c3c2)CC(=Cc2cc(Cl)ccc2-4)C1=O [Compound 21] | 280 | 
17 | COc1ccc2c(c1)C=C1Cn3c-2c(C2CCCCC2)c2ccc(cc23)C(=O)NS(=O)(=O)N(C)CCCCCCN(C)C1=O [Compound 22] | 160 | 
18 | COc1ccc2c(c1)C=C1Cn3c-2c(C2CCCCC2)c2ccc(cc23)C(=O)NS(=O)(=O)NCCN(C)CCNC1=O [Compound 23] | 470 | 
19 | CN1CCCCN(C)S(=O)(=O)NC(=O)c2ccc3c(C4CCCCC4)c4n(c3c2)CC(=Cc2ccc(Cl)cc2-4)C1=O [Compound 24] | 14500 | 
20 | COc1ccc2c(c1)C=C1Cn3c-2c(C2CCCCC2)c2ccc(cc23)C(=O)NS(=O)(=O)NCCCCN(C)C1=O [Compound 25] | 550 | 
21 | COc1ccc2c(c1)C=C1Cn3c-2c(C2CCCCC2)c2ccc(cc23)C(=O)NS(=O)(=O)N(C)CCCCCNC1=O [Compound 26] | 130 | 
22 | CN1CCCCCNC(=O)C2=Cc3ccc(Cl)cc3-c3c(C4CCCCC4)c4ccc(cc4n3C2)C(=O)NS1(=O)=O [Compound 27] | 10200 | 
23 | COc1ccc2c(c1)C=C1Cn3c-2c(C2CCCCC2)c2ccc(cc23)C(=O)NS(=O)(=O)N(C(C)C)CCCCN(C)C1=O [Compound 28] | 330 | 
24 | COc1ccc2c(c1)C=C1Cn3c-2c(C2CCCCC2)c2ccc(cc23)C(=O)NS(=O)(=O)N(C)CCCCNC1=O [Compound 38] | 912 | 
